Test results reported in ChEMBL document CHEMBL4011592, “Synthesis and evaluation of 7-substituted-5,6-dihydrobenzo[c]acridine derivatives as new c-KIT promoter G-quadruplex binding ligands” (Eur J Med Chem, 2017).
pIC50, pKd: −log10 of the molar value. Active and inactive are the calls of the source. The calls are words filed in the database; no cut-off is given here.

Assays:
K562 = test: Cytotoxicity against human K562 cells after 48 hrs by MTT assay; type: functional, cell-based; details: K562, 48 h
[1] = Binding affinity to 5'-FAM/3'-TAMARA labelled c-KIT1 G-quadruplex DNA (unknown origin) assessed as change in melting temperature at 2 uM in presence ds26 DNA by FRET assay
[2] = Binding affinity to F10T duplex DNA (unknown origin) assessed as change in melting temperature at 1 uM by FRET assay
[3] = Selectivity ratio of Kd for biotinylated duplex DNA (unknown origin) to Kd for biotinylated c-KIT1 G-quadruplex DNA (unknown origin)
[4] = Binding affinity to biotinylated duplex DNA (unknown origin) by SPR assay
A549 = test: Cytotoxicity against human A549 cells after 48 hrs by MTT assay; type: functional, cell-based; details: A549, 48 h
[5] = Binding affinity to 5'-FAM/3'-TAMARA labelled c-KIT1 G-quadruplex DNA (unknown origin) assessed as change in melting temperature at 1 uM by FRET assay
[6] = Binding affinity to 5'-FAM/3'-TAMARA labelled c-KIT1 G-quadruplex DNA (unknown origin) assessed as change in melting temperature at 2 uM by FRET assay
[7] = Binding affinity to 5'-FAM/3'-TAMARA labelled c-KIT2 G-quadruplex DNA (unknown origin) assessed as change in melting temperature at 1 uM by FRET assay
[8] = Binding affinity to F10T duplex DNA (unknown origin) assessed as change in melting temperature at 2 uM by FRET assay
BJ = test: Cytotoxicity against human BJ cells after 48 hrs by MTT assay; type: cell-based
HeLa = test: Cytotoxicity against human HeLa cells after 48 hrs by MTT assay; type: functional, cell-based
[9] = Binding affinity to biotinylated c-KIT1 G-quadruplex DNA (unknown origin) by SPR assay
[10] = Binding affinity to c-KIT1 G-quadruplex DNA (unknown origin) assessed as ability to promote c-KIT G-rich sequences to form parallel G-quadruplex at 25 uM in absence of KCl measured after 10 mins by CD-spectroscopic analysis
[11] = Binding affinity to c-KIT1 G-quadruplex DNA (unknown origin) assessed as 1:1 binding stoichiometry between compound and G-quadruplex DNA by Job's plot method
[12] = Binding affinity to c-KIT1 G-quadruplex DNA (unknown origin) assessed as maintainance of parallel c-KIT G-quadruplex conformation at 5 uM in presence of KCl measured after 10 mins by CD-spectroscopic analysis
[13] = Binding affinity to c-KIT2 G-quadruplex DNA (unknown origin) assessed as ability to promote c-KIT G-rich sequences to form parallel G-quadruplex at 25 uM in absence of KCl measured after 10 mins by CD-spectroscopic analysis
[14] = Binding affinity to c-KIT1 G-quadruplex DNA (unknown origin) assessed as hyperchromicity at 10 uM measured after 10 mins by UV-vis spectroscopic method
[15] = Binding affinity to c-KIT1 G-quadruplex DNA (unknown origin) assessed as isosbestic point at 10 uM measured after 10 mins by UV-vis spectroscopic method
[16] = Binding affinity to c-KIT2 G-quadruplex DNA (unknown origin) assessed as maintainance of parallel c-KIT G-quadruplex conformation at 5 uM in presence of KCl measured after 10 mins by CD-spectroscopic analysis
[17] = Binding affinity to c-KIT1 G-quadruplex DNA (unknown origin) assessed as red shift at 10 uM measured after 10 mins by UV-vis spectroscopic method
[18] = Binding affinity to c-KIT1 G-quadruplex DNA (unknown origin) measured after 10 mins by UV-vis spectroscopic method
[19] = Binding affinity to c-KIT1 G-quadruplex DNA (unknown origin) assessed as hyperchromicity at 5 uM measured after 10 mins by fluorescence spectroscopic method
[20] = Binding affinity to c-KIT1 G-quadruplex DNA (unknown origin) assessed as 1:1 binding stoichiometry between compound and G-quadruplex DNA 10 uM by ESI-MS spectra analysis

| Activity [1] | ΔTm [2] [°C] | Selectivity ratio [3] | pKd [4] | ΔTm [5] [°C] | ΔTm [6] [°C] | ΔTm [7] [°C] | ΔTm [8] [°C] | pKd [9] | Structure (SMILES) | pIC50 (K562) | pIC50 (A549) | pIC50 (BJ) | pIC50 (HeLa) | also measured |
| --- | --- | --- | --- | --- | --- | --- | --- | --- | --- | --- | --- | --- | --- | --- |
| Active | 0.7 | 2.2 | 5.03 | 12.1 | 16.4 | 6.7 | 0.9 | 5.38 | COc1cc2c(cc1OC)-c1nc3ccccc3c(NCCN(C)C)c1CC2 | 4.59 | 5.25 | 4.72 | 4.93 | – |
| Active | 0.8 | 3.1 | 5.11 | 11.1 | 16.7 | 6.2 | 1.2 | 5.60 | COc1cc2c(cc1OC)-c1nc3ccccc3c(NCCN3CCCC3)c1CC2 | 5.32 | 5.55 | 5.28 | 5.34 | – |
| Active | 1.3 | > 5.7 | < 4.70 | 12.3 | 20.4 | 9 | 2.3 | 5.46 | COc1cc2c(cc1OC)-c1nc3ccccc3c(NCCCN(C)C)c1CC2 | 5.17 | 5.44 | 5.38 | 5.29 | – |
| Active | 1.7 | 5.2 | 4.77 | 17.4 | 22.6 | 9 | 2 | 5.48 | COc1cc2c(cc1OC)-c1nc3ccccc3c(NCCN3CCN(C)CC3)c1CC2 | 4.64 | 5.52 | 5.10 | 5.28 | – |
| Active | 0.9 | > 9.1 | < 4.70 | 7.7 | 11.3 | 3.7 | 0.4 | 5.66 | COc1cc2c(cc1OC)-c1c(c(NCCN3CCCC3)c3ccccc3[n+]1C)CC2 | < 4.30 | 4.44 | 4.44 | 4.35 | – |
| Active | 0.8 | > 3.4 | < 4.70 | 8.6 | 10.7 | 3.7 | 0.3 | 5.24 | COc1cc2c(cc1OC)-c1c(c(NCCCN(C)C)c3ccccc3[n+]1C)CC2 | < 4.30 | < 4.30 | < 4.30 | < 4.30 | – |
| Active | 0.8 | > 2.5 | < 4.70 | 6.7 | 7.4 | 2.8 | 0.3 | 5.10 | COc1cc2c(cc1OC)-c1c(c(NCCN(C)C)c3ccccc3[n+]1C)CC2 | 4.47 | < 4.30 | < 4.30 | < 4.30 | – |
| Active | 1.1 | > 6.1 | < 4.70 | 10.7 | 14 | 4.7 | 0.3 | 5.48 | COc1cc2c(cc1OC)-c1c(c(NCCCN3CCCC3)c3ccccc3[n+]1C)CC2 | 4.72 | < 4.30 | < 4.30 | < 4.30 | – |
| Active | 0.9 | > 5.1 | < 4.70 | 8.5 | 10.3 | 3.3 | 0.5 | 5.41 | CCN(CC)CCNc1c2c([n+](C)c3ccccc13)-c1cc(OC)c(OC)cc1CC2 | 4.60 | < 4.30 | < 4.30 | < 4.30 | – |
| Active | 1.3 | > 7.1 | < 4.70 | 18.7 | 22.9 | 8.6 | 1.6 | 5.55 | COc1cc2c(cc1OC)-c1nc3ccccc3c(NCCCN3CCN(C)CC3)c1CC2 | 5.38 | 5.19 | 4.86 | 5.02 | – |
| – | 0.3 | > 5.4 | < 4.70 | 3.3 | 5.2 | 0.6 | 0.6 | 5.43 | COc1cc2c(cc1OC)-c1nc3ccccc3c(C(=O)NCCCN3CCCCC3)c1CC2 | < 4.30 | < 4.30 | < 4.30 | < 4.30 | – |
| Active | 0.1 | > 2.6 | < 4.70 | 4.7 | 7.8 | 2.6 | 0.2 | 5.11 | COc1cc2c(cc1OC)-c1nc3ccccc3c(NCCN3CCCCC3)c1CC2 | 4.88 | 4.73 | < 4.30 | 4.40 | – |
| Active | 0.6 | 2.2 | 5.23 | 9.8 | 15.7 | 6.5 | 0.9 | 5.57 | CCN(CC)CCNc1c2c(nc3ccccc13)-c1cc(OC)c(OC)cc1CC2 | 5.10 | 5.24 | 4.64 | 4.75 | – |
| – | 0.1 | – | < 4.70 | 2.2 | 3.4 | 0.6 | 0.6 | < 4.70 | COc1cc2c(cc1OC)-c1nc3ccccc3c(C(=O)NCCN3CCCC3)c1CC2 | < 4.30 | < 4.30 | < 4.30 | < 4.30 | – |
| – | 0.5 | > 7.1 | < 4.70 | 3.4 | 6.6 | 0.6 | 0.5 | 5.55 | CCN(CC)CCCNC(=O)c1c2c(nc3ccccc13)-c1cc(OC)c(OC)cc1CC2 | < 4.30 | < 4.30 | < 4.30 | < 4.30 | – |
| – | 0.7 | – | < 4.70 | 0.1 | 0.2 | 0.1 | 0.1 | < 4.70 | COc1cc2c(cc1OC)-c1nc3ccccc3c(Cl)c1CC2 | – | – | – | – | – |
| Active | 1.4 | > 5.1 | < 4.70 | 11.6 | 20.2 | 8.1 | 2.1 | 5.41 | COc1cc2c(cc1OC)-c1nc3ccccc3c(NCCCN3CCCCC3)c1CC2 | 5.41 | 5.36 | 4.91 | 5.00 | – |
| Active | 1.1 | > 6.9 | < 4.70 | 10.8 | 20.5 | 8.6 | 2.9 | 5.54 | COc1cc2c(cc1OC)-c1nc3ccccc3c(NCCCN3CCCC3)c1CC2 | 5.38 | 5.41 | 5.17 | 5.37 | – |
| Active | 0.9 | > 2.7 | < 4.70 | 7.5 | 10.8 | 3.6 | 0.4 | 5.13 | CCN(CC)CCCNc1c2c([n+](C)c3ccccc13)-c1cc(OC)c(OC)cc1CC2 | 4.43 | < 4.30 | < 4.30 | < 4.30 | Activity [10]: Active; Activity [11]: Active; Activity [12]: Active; Activity [13]: Active; Activity [14]: Active; Activity [15]: Active; Activity [16]: Active; Activity [17]: Active; pKd [18]: 5.04; Activity [19]: Active; Activity [20]: Active |
| Active | 0.2 | > 7.1 | < 4.70 | 4.4 | 12.2 | 4.4 | 0.7 | 5.55 | COc1cc2c(cc1OC)-c1c(cc3c(OCCCN4CCCCC4)c(OC)ccc3[n+]1C)CC2 | – | – | – | – | – |
